Experiments:
[1] = test system: MDA-MB-231 (breast); assay: Cell viability, crystal violet assay, MDA-MB-231; type: cell-based, human; conditions: for IC50: MDA-MB-231 (breast), 4,000 cells/well, treated 72 h, mean ± SD (n = 3)
From the text: The plates were washed with water and dried again.

[2] = test system: H460 (lung); conditions: H460 (lung), 4,000 cells/well, treated 72 h, mean ± SD (n = 3)
Description: (§1) All cell lines (OVCAR8, A2780, H460, and MDA-MB-231) were cultivated in RPMI or DMEM supplemented with 10% FBS, 1% penicillin/streptomycin, and 1% amphotericin. All cells were grown at 310K in a humidified atmosphere containing 5% CO2.
(§2) Various established human ovarian, lung, and breast cancer cell lines were seeded in 96-well plates (4000 cells/well) and were incubated with RPMI 1640 or DMEM (100 μL) supplemented with 10% FBS, 1% penicillin/streptomycin, and 1% amphotericin for 24 h and at 37° C. They were then treated with AuPhos compounds at increasing concentrations for 72 h from stock solutions following serial dilutions, in which AuPhos stock solutions were prepared in DMSO/media mixture (% v/v=20:80). Thereafter, cellular viability was assessed via the established crystal violet colorimetric assay. In brief, cells were fixed with 50 μL of a 1% glutaraldehyde solution and placed in an incubator (37° C., 5% CO2) for 1 hour. The plates were washed with water by running them under a gentle flow of tap water. The plates were air-dried, and crystal violet reagent was added to each well and allowed to incubate at room temperature for 20 min. The plates were washed with water and dried again. Methanol (200 μL/well) was added to each well, and the measurements of absorbance were subsequently performed using a Biotek Synergy H1 Plate Reader at 570 nm (peak absorbance).

[3] = test system: OVCAR8 (ovarian); conditions: OVCAR8 (ovarian), 4,000 cells/well, treated 72 h, mean ± SD (n = 3)
Description: as §1, §2

[4] = test system: A2780 (ovarian); conditions: A2780 (ovarian), 4,000 cells/well, treated 72 h, mean ± SD (n = 3)
Description: as §1, §2

[5] = test system: MDA-MB-231 cells; conditions: 2 mM for 3 h, FACS
Description: MDA-MB-231 cells were seeded at a density of 5×10^5 cells/well in a 6-well clear bottom plate with a final media volume of 2 mL. The cells were allowed to adhere overnight at 37° C. A stock of AuPhos-89 was prepared fresh in DMSO/DMEM (% v/v=20:80) and added to the desired well at a concentration of 1 μM with a final volume of 2.5 mL and incubated for 15 h at 37° C. A stock of H2O2 was prepared in PBS and the cells treated at a final concentration of 2 mM for 3 hours and used as positive control. When ready for analysis, medium was removed and the wells washed with 5 mL of PBS. The cells were trypsinized (1 mL), 5 mL of DMEM were added to each well, and total volume collected and centrifuged to pellet the cells. The cells were resuspended in 2 mL of fresh media, counted, and reconstituted to a concentration of 1×10^5 cells/mL. The cells were centrifuged again, and the pellet suspended in 500 μL of Annexin binding buffer. To each sample was added 5 μl of Annexin V-FITC and 5 μl PI and incubated in the dark at room temperature for 5 minutes. The samples were then subjected to FACS analysis.

[6] = test system: 4T1 tumor; assay: In vivo comparative experiment of AuPhos-89 and cisplatin, 4T1, IP; design: species or system BALB/c mice
Description: Mice were implanted with 2,000,000 4T1 cells subcutaneously on their flanks. […] The control group was injected with a PBS solution containing 1.5% DMSO and 12% Kolliphor. Injection and tumor-size/body-weight measurement was performed three days a week.
Mice organs (heart, lung, liver, kidney, spleen, and tumor) were fixed in freshly prepared paraformaldehyde (4% in PBS), the fixation time was 24 hours. And those processed for paraffin sectioning. The organs sections of 5 μm were stained with H&E staining and used for histological examination of the organs and tumor. A total of 5 sections per tissues (spanning the full depth of the organ) were examined and photographed using a Nikon Eclipse 55i microscope. […]

Compound | IC50 [1] [nM] | IC50 [2] [nM] | IC50 [3] [nM] | IC50 [4] [nM] | IC50 ([1]; Homo sapiens) [nM] | less cytotoxicity compared with the AuPhos compounds (Table 1) ([1]; MDA-MB-231) [times] | apoptosis, positive control [5] | tumor inhibition compared with the control group ([6]; AuPhos-89 10 mg kg−1 IP, cisplatin 3 mg kg−1 IP) | tumor volume ([6]; six treatments, thrice a week, IP, AuPhos-89 10 mg kg−1, cisplatin 3 mg/kg, versus vehicle control)
(2-phenoxypyridine)[1,2-Bis(diphenylphosphino) benzene]gold(III) Dichloride [AuPhos-83] | 220 ± 70 | 270 ± 60 | 890 ± 140 | 220 ± 10 | – | – | – | – | –
c1ccc(P(c2ccccc2)c2ccccc2P(c2ccccc2)c2ccccc2)cc1 [1,2-Bis(diphenylphosphino)benzene, reference compound] | – | – | – | – | 1370 ± 450 | ~6 | – | – | –
OO [hydrogen peroxide, reference compound] | – | – | – | – | – | – | significant apoptosis | – | –
Cl.[Cl][Au-]1([c]2ccccc2Nc2ccccn2)[P+](c2ccccc2)(c2ccccc2)c2ccccc2[P+]1(c1ccccc1)c1ccccc1 [AuPhos-82, (2-anilinopyridine)[1,2-Bis(diphenylphosphino)benzene]gold(III) Dichloride] | 220 ± 200 | 1040 ± 170 | 850 ± 60 | 340 ± 40 | – | – | – | – | –
Cl.O=Cc1ccc(-c2ccccn2)[c]([Au-]2([Cl])[P+](c3ccccc3)(c3ccccc3)c3ccccc3[P+]2(c2ccccc2)c2ccccc2)c1 [AuPhos-88, (4-(2-pyridyl)benzaldehyde)[1,2-Bis(diphenylphosphino)benzene]gold(III) Dichloride] | 370 ± 210 | 400 ± 30 | 850 ± 70 | 270 ± 20 | – | – | – | – | –
Cl.[Cl][Au-]1([c]2ccccc2Cc2ccccn2)[P+](c2ccccc2)(c2ccccc2)c2ccccc2[P+]1(c1ccccc1)c1ccccc1 [AuPhos-84, (2-benzylpyridine)[1,2-Bis(diphenylphosphino)benzene]gold(III) Dichloride] | 240 ± 160 | 760 ± 150 | 1240 ± 140 | 250 ± 60 | – | – | – | – | –
Cl.O=C(c1ccccn1)c1cccc[c]1[Au-]1([Cl])[P+](c2ccccc2)(c2ccccc2)c2ccccc2[P+]1(c1ccccc1)c1ccccc1 [AuPhos-85, (2-benzoylpyridine)[1,2-Bis(diphenylphosphino)benzene]gold(I) Dichloride] | 260 ± 60 | 340 ± 70 | 640 ± 110 | 150 ± 30 | – | – | – | – | –
Cl.[Cl][Au-]1([c]2cccc3ccc4cccnc4c23)[P+](c2ccccc2)(c2ccccc2)c2ccccc2[P+]1(c1ccccc1)c1ccccc1 [AuPhos-86, (benzo[h]quinoline)[1,2-Bis(diphenylphosphino)benzene]gold(III) Dichloride] | 290 ± 40 | 340 ± 70 | 820 ± 440 | 330 ± 40 | – | – | – | – | –
Cc1ccc(-c2ccccn2)[c]([Au-]2([Cl])[P+](c3ccccc3)(c3ccccc3)c3ccccc3[P+]2(c2ccccc2)c2ccccc2)c1.Cl [AuPhos-87, (2-(p-tolyl)pyridine)[1,2-Bis(diphenylphosphino)benzene]gold(III) Dichloride] | 450 ± 190 | 710 ± 90 | 820 ± 760 | 180 ± 40 | – | – | – | – | –
N.N.[Cl][Pt][Cl] [cisplatin, reference compound] | – | – | – | – | – | – | – | significant tumor inhibition | comparable results to AuPhos-89 treatment
